Assay results published in patent US20260070945A1, “MACROCYCLIC IMMUNOMODULATORS” (Bristol-Myers Squibb Company, priority 2022, published 2026).
pIC50: −log10 of the molar value. *1 amine or outer side, *2 acyl side, *3 side chain or, on linkers, in order; H or OH if unused. Where a SMILES comes first, the peptide text is derived from it. Bridges are numbered along the chain shown (N, C = ends). [ ]: non-standard residue; d: D form. The star is where a group is joined. ξ: configuration not given here. Phe(3-CF3) = N[C@@H](Cc1cccc(C(F)(F)F)c1)C(=O)O; Phe(4-COOH) = N[C@@H](Cc1ccc(C(=O)O)cc1)C(=O)O; Bip = N[C@@H](Cc1ccc(-c2ccccc2)cc1)C(=O)O; Phe(4-CN) = N#Cc1ccc(C[C@H](N)C(=O)O)cc1; NH(CH2)14COOH = O=C(O)CCCCCCCCCCCCCCN*; Phe(3-Me) = Cc1cccc(C[C@H](N)C(=O)O)c1; γGlu = O=C(O)[C@H](CCC(=O)[*:2])N[*:1]; NH(CH2)12COOH = O=C(O)CCCCCCCCCCCCN*; Val(3-OH) = CC(C)(O)[C@H](N)C(=O)O; hArg = N=C(N)NCCCC[C@H](N)C(=O)O; 4Pal = N[C@@H](Cc1ccncc1)C(=O)O; 3Thi = N[C@@H](Cc1ccsc1)C(=O)O; Cha = N[C@@H](CC1CCCCC1)C(=O)O; Cit = NC(=O)NCCC[C@H](N)C(=O)O; Ile(3ξ) = CCC(C)[C@H](N)C(=O)O; Thr(3ξ) = CC(O)[C@H](N)C(=O)O; 12Ado = NCCCCCCCCCCCC(=O)O; dDab = NCC[C@@H](N)C(=O)O; Carboxymethyl = O=C(O)C*; NMeA = CN[C@@H](C)C(=O)O; Orn = NCCC[C@H](N)C(=O)O; Pra = C#CC[C@H](N)C(=O)O; Aun = NCCCCCCCCCCC(=O)O; Dab = NCC[C@H](N)C(=O)O; AEEA = NCCOCCOCC(=O)O

These molecules were tested against T1, PD-1/PD-L1 interaction (PE-labeled human PD-L1-Ig binding to Jurkat cell line over-expressing human PD-1) (Homo sapiens, UniProt Q15116) (assay: Jurkat-PD-1 Cell Binding High-Content Screening Assay (CBA)). Details: Jurkat-hPD-1 cells, PE-labeled PD-L1-Ig 20 nM final; read-out: Jurkat HPD1 PDL1 IC50.
T1 construct: expressed in transfected cells; host or cells: Jurkat
T1 sequence (Q15116 25-288): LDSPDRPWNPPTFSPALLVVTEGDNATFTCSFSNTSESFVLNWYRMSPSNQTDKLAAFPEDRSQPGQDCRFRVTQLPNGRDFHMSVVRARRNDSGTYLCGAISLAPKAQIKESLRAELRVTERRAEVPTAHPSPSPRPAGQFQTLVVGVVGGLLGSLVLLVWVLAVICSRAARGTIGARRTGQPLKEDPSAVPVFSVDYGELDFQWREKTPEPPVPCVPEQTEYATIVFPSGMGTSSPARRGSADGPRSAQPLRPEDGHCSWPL
Method in brief: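 Cells 8×10^3/well, DMEM + 10% FCS; cpd 2 h, 37 °C; PE–PD-L1-Ig 20 nM final, 1 h; PFA fix + Hoechst 33342, 3× dPBS wash; high-content imager.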
`CC(C)C[C@@H]1NC(=O)[C@H](Cc2c[nH]c3ccccc23)NC(=O)[C@H](CC(=O)O)NC(=O)[C@H](Cc2ccc(OCC(=O)O)cc2)NC(=O)[C@H](CCCCNC(=N)N)NC(=O)CSC[C@@H](C(=O)N[C@@H](C)C(=O)N[C@@H](CCN)C(=O)NCCCCCCCCCCCCCCC(=O)O)NC(=O)[C@H](CO)NC(=O)[C@H](C(C)C)NC(=O)[C@H](CC2CCCCC2)NC(=O)[C@H](CCN)NC(=O)[C@@H](CC(C)C)NC(=O)[C@H](C)N(C)C(=O)[C@H](C(C)C)NC(=O)[C@H](Cc2ccc(-c3ccccc3)cc2)NC1=O` [Example 2002] ({CH2CO}-[hArg]Y(Carboxymethyl)DWL[Bip]V[NMeA][dL][Dab][Cha]VSCA[Dab]-{NH(CH2)14COOH}; thioether N-14) showed a pIC50 of 7.18.
`CC(C)C[C@@H]1NC(=O)[C@H](Cc2c[nH]c3ccccc23)NC(=O)[C@H](CC(=O)O)NC(=O)[C@H](Cc2ccc(C(=O)O)cc2)NC(=O)[C@H](Cc2ccc(OCC(=O)O)cc2)NC(=O)CSC[C@@H](C(=O)NCCOCCOCC(=O)NCCCCCCCCCCC(=O)O)NC(=O)[C@H](CCN)NC(=O)[C@H](C(C)(C)O)NC(=O)[C@H](CC2CCCCC2)NC(=O)[C@H](CCN)NC(=O)[C@@H](CC(C)C)NC(=O)[C@H](C)N(C)C(=O)[C@H](C(C)C)NC(=O)[C@H](Cc2ccc(-c3ccccc3)cc2)NC1=O` [Example 1120] ({CH2CO}-Y(Carboxymethyl)[Phe(4-COOH)]DWL[Bip]V[NMeA][dL][Dab][Cha][Val(3-OH)][Dab]C[AEEA][Aun]-OH; thioether N-14) gave a pIC50 of 7.87.
Work on `CC(C)C[C@H]1NC(=O)[C@H](C)N(C)C(=O)[C@H](C(C)C)NC(=O)[C@H](Cc2ccc(-c3ccccc3)cc2)NC(=O)[C@H](C(C)C)NC(=O)[C@H](Cc2c[nH]c3ccccc23)NC(=O)[C@H](CC(=O)O)NC(=O)[C@H](Cc2ccc(OCC(=O)O)cc2)NC(=O)[C@H](Cc2ccc(OCC(=O)O)cc2)NC(=O)CSC[C@@H](C(=O)NCCOCCOCC(=O)NCCCCCCCCCCC(=O)O)NC(=O)[C@H](CO)NC(=O)[C@H](C(C)C)NC(=O)[C@H](CC2CCCCC2)NC(=O)[C@H](CCN)NC1=O` [Example 2453] ({CH2CO}-Y(Carboxymethyl)Y(Carboxymethyl)DWV[Bip]V[NMeA][dL][Dab][Cha]VSC[AEEA][Aun]-OH; thioether N-14) yielded a pIC50 of 7.88.
Work on `C#CC[C@H](NC(=O)[C@H](CCN)NC(=O)[C@@H]1CSCC(=O)N[C@@H]([C@@H](C)O)C(=O)N[C@@H](Cc2ccc(OCC(=O)O)cc2)C(=O)N[C@@H](CC(=O)O)C(=O)N[C@@H](Cc2cccc(C(F)(F)F)c2)C(=O)N[C@@H](Cc2ccc(C(=O)O)cc2)C(=O)N[C@@H](Cc2ccc(-c3ccccc3)cc2)C(=O)N[C@@H](Cc2ccc(OCC(=O)O)cc2)C(=O)N(C)[C@@H](C)C(=O)N[C@H](CC(C)C)C(=O)N[C@@H](CCN)C(=O)N[C@@H](CC2CCCCC2)C(=O)N[C@@H](C(C)C)C(=O)N[C@@H]([C@@H](C)O)C(=O)N1)C(=O)NCCCCCCCCCCC(=O)O` [Example 1238] ({CH2CO}-TY(Carboxymethyl)D[Phe(3-CF3)][Phe(4-COOH)][Bip]Y(Carboxymethyl)[NMeA][dL][Dab][Cha]VTC[Dab][Pra][Aun]-OH; thioether N-14) yielded a pIC50 of 7.83.
`COC[C@@H]1NC(=O)CSC[C@@H](C(=O)N[C@@H](CCN)C(=O)NCCOCCOCC(=O)N[C@@H](CCC(=O)NCCOCCOCC(=O)NCCCCCCCCCCCCC(=O)O)C(=O)O)NC(=O)[C@H](CO)NC(=O)[C@H](C(C)(C)O)NC(=O)[C@H](CC2CCCCC2)NC(=O)[C@H](CCN)NC(=O)[C@@H](CC(C)C)NC(=O)[C@H](C)N(C)C(=O)[C@H](CCCNC(N)=O)NC(=O)[C@H](Cc2ccc(-c3ccccc3)cc2)NC(=O)[C@H](Cc2ccc(C(=O)O)cc2)NC(=O)[C@H](Cc2cccc(C(F)(F)F)c2)NC(=O)[C@H](CC(=O)O)NC(=O)[C@H](Cc2ccc(OCC(=O)O)cc2)NC1=O` [Example 1181] ({CH2CO}-S(Me)Y(Carboxymethyl)D[Phe(3-CF3)][Phe(4-COOH)][Bip][Cit][NMeA][dL][Dab][Cha][Val(3-OH)]SC[Dab][AEEA][γGlu][AEEA]-{NH(CH2)12COOH}; thioether N-14) was tested, and the pIC50 was 7.31.
In the case of `CC(C)C[C@H]1NC(=O)[C@H](C)N(C)C(=O)[C@H](C(C)C)NC(=O)[C@H](Cc2ccc(-c3ccccc3)cc2)NC(=O)[C@H](C(C)C)NC(=O)[C@H](Cc2c[nH]c3ccccc23)NC(=O)[C@H](CC(=O)O)NC(=O)[C@H](Cc2ccc(C(=O)O)cc2)NC(=O)[C@H](Cc2ccc(OCC(=O)O)cc2)NC(=O)CSC[C@@H](C(=O)N[C@@H](CCCN)C(=O)NCCOCCOCC(=O)NCCCCCCCCCCC(=O)O)NC(=O)[C@H](CO)NC(=O)[C@H](C(C)C)NC(=O)[C@H](CC2CCCCC2)NC(=O)[C@H](CCN)NC1=O` [Example 2110] ({CH2CO}-Y(Carboxymethyl)[Phe(4-COOH)]DWV[Bip]V[NMeA][dL][Dab][Cha]VSC[Orn][AEEA][Aun]-OH; thioether N-14), the pIC50 was 7.77.
For `CC(C)C[C@@H]1NC(=O)[C@H](Cc2c[nH]c3ccccc23)NC(=O)[C@H](CC(=O)O)NC(=O)[C@H](Cc2ccc(C(=O)O)cc2)NC(=O)[C@H](Cc2ccc(OCC(=O)O)cc2)NC(=O)CSC[C@@H](C(=O)N[C@@H](CCCN)C(=O)NCCOCCOCC(=O)NCCCCCCCCCCC(=O)O)NC(=O)[C@H](CO)NC(=O)[C@H](C(C)C)NC(=O)[C@H](CC2CCCCC2)NC(=O)[C@H](CCCN)NC(=O)[C@@H](CC(C)C)NC(=O)[C@H](C)N(C)C(=O)[C@H](C(C)C)NC(=O)[C@H](Cc2ccc(-c3ccccc3)cc2)NC1=O` [Example 2138] ({CH2CO}-Y(Carboxymethyl)[Phe(4-COOH)]DWL[Bip]V[NMeA][dL][Orn][Cha]VSC[Orn][AEEA][Aun]-OH; thioether N-14), the pIC50 was 7.85.
`CC(C)C[C@@H]1NC(=O)[C@H](Cc2c[nH]c3ccccc23)NC(=O)[C@H](CC(=O)O)NC(=O)[C@H](Cc2ccncc2)NC(=O)[C@H](Cc2ccc(OCC(=O)O)cc2)NC(=O)CSC[C@@H](C(=O)N[C@@H](CCN)C(=O)NCCCCCCCCCCC(=O)O)NC(=O)[C@H]([C@@H](C)O)NC(=O)[C@H](C(C)C)NC(=O)[C@H](CC2CCCCC2)NC(=O)[C@H](CCN)NC(=O)[C@@H](CC(C)C)NC(=O)[C@H](C)N(C)C(=O)[C@H](Cc2ccc(O)cc2)NC(=O)[C@H](Cc2ccc(-c3ccccc3)cc2)NC1=O` [Example 1325] ({CH2CO}-Y(Carboxymethyl)[4Pal]DWL[Bip]Y[NMeA][dL][Dab][Cha]VTC[Dab][Aun]-OH; thioether N-14) showed a pIC50 of 7.55.
`Cc1cccc(C[C@@H]2NC(=O)[C@H](CC(=O)O)NC(=O)[C@H](Cc3ccc(OCC(=O)O)cc3)NC(=O)[C@H](C(C)O)NC(=O)CSC[C@@H](C(=O)N[C@@H](CCCN)C(=O)N[C@@H](CO)C(=O)NCCCCCCCCCCCC(=O)O)NC(=O)[C@H](CO)NC(=O)[C@H](C(C)(C)O)NC(=O)[C@H](CC3CCCCC3)NC(=O)[C@H](CCN)NC(=O)[C@@H](CC(C)C)NC(=O)[C@H](C)N(C)C(=O)[C@H](CCCNC(N)=O)NC(=O)[C@H](Cc3ccc(-c4ccccc4)cc3)NC(=O)[C@H](C(C)C)NC2=O)c1` (stereo partly drawn) [Example 2394] ({CH2CO}-[Thr(3ξ)]Y(Carboxymethyl)D[Phe(3-Me)]V[Bip][Cit][NMeA][dL][Dab][Cha][Val(3-OH)]SC[Orn]S[12Ado]-OH; thioether N-14) showed a pIC50 of 7.80.

Same assay, conditions: PE-labeled PD-L1-Ig 20 nM final, Jurkat-hPD-1 cells; read-out: Jurkat HPD1 PDL1 IC50
For `Cc1cccc(C[C@@H]2NC(=O)[C@H](CC(=O)O)NC(=O)[C@H](Cc3ccc(C#N)cc3)NC(=O)[C@H](C(C)O)NC(=O)CSC[C@@H](C(=O)N[C@@H](CCN)C(=O)NCCOCCOCC(=O)NCCOCCOCC(=O)NCCCCCCCCCCC(=O)O)NC(=O)[C@H](Cc3cnc[nH]3)NC(=O)[C@H](C(C)O)NC(=O)[C@H](CC3CCCCC3)NC(=O)[C@H](CCN)NC(=O)[C@@H](CC(C)C)NC(=O)[C@H](C)N(C)C(=O)[C@H](Cc3ccc(OCC(=O)O)cc3)NC(=O)[C@H](Cc3ccc(-c4ccccc4)cc3)NC(=O)[C@H](Cc3ccc(OCC(=O)O)cc3)NC2=O)c1` (stereo partly drawn) [Example 2525] ({CH2CO}-[Thr(3ξ)][Phe(4-CN)]D[Phe(3-Me)]Y(Carboxymethyl)[Bip]Y(Carboxymethyl)[NMeA][dL][Dab][Cha][Thr(3ξ)]HC[Dab][AEEA][AEEA][Aun]-OH; thioether N-14), the pIC50 was 8.10.
For `CC(=O)NCCCC[C@@H]1NC(=O)[C@H](C(C)(C)O)NC(=O)[C@H](CC2CCCCC2)NC(=O)[C@H](CCN)NC(=O)[C@@H](CC(C)C)NC(=O)[C@H](C)N(C)C(=O)[C@H](CCC(N)=O)NC(=O)[C@H](Cc2ccc(-c3ccccc3)cc2)NC(=O)[C@H](Cc2ccc(C(=O)O)cc2)NC(=O)[C@H](Cc2cccc(C(F)(F)F)c2)NC(=O)[C@H](CC(=O)O)NC(=O)[C@H](Cc2ccc(OCC(=O)O)cc2)NC(=O)[C@H](Cc2ccc(OCC(=O)O)cc2)NC(=O)CSC[C@@H](C(=O)N[C@H](CCN)C(=O)NCCOCCOCC(=O)N[C@@H](CO)C(=O)NCCOCCOCC(=O)N[C@@H](CCC(=O)NCCCCCCCCCCCCCCC(=O)O)C(=O)O)NC1=O` [Example 2650] ({CH2CO}-Y(Carboxymethyl)Y(Carboxymethyl)D[Phe(3-CF3)][Phe(4-COOH)][Bip]Q[NMeA][dL][Dab][Cha][Val(3-OH)]K(Ac)C[dDab][AEEA]S[AEEA]E(NH(CH2)14COOH)-OH; thioether N-14), the pIC50 was 6.79.
`CCC(C)[C@@H]1NC(=O)[C@H](Cc2ccc(-c3ccccc3)cc2)NC(=O)[C@H](CC(C)C)NC(=O)[C@H](Cc2c[nH]c3ccccc23)NC(=O)[C@H](CC(=O)O)NC(=O)[C@H](Cc2ccc(OCC(=O)O)cc2)NC(=O)[C@H](Cc2ccsc2)NC(=O)CSC[C@@H](C(=O)N[C@@H](CCN)C(=O)NCCOCCOCC(=O)NCCCCCCCCCCC(=O)O)NC(=O)[C@H](CCC(=O)O)NC(=O)[C@H](C(C)(C)O)NC(=O)[C@H](CC2CCCCC2)NC(=O)[C@H](CCN)NC(=O)[C@@H](CC(C)C)NC(=O)[C@H](C)N(C)C1=O` (stereo partly drawn) [Example 2510] ({CH2CO}-[3Thi]Y(Carboxymethyl)DWL[Bip][Ile(3ξ)][NMeA][dL][Dab][Cha][Val(3-OH)]EC[Dab][AEEA][Aun]-OH; thioether N-14) gave a pIC50 of 7.74.
